Assay: xn = mol fraction of the nth substance listed
Details: 101 kPa, Liquid; for viscosity: Concentric cylinders viscometry; for mass density: Vibrating tube method

COC(C)(C)C [2-methoxy-2-methylpropane] + CCO
Details	mass density, 293.15 K [kg/m3]	mass density, 298.15 K [kg/m3]	mass density, 303.15 K [kg/m3]	mass density, 308.15 K [kg/m3]	viscosity, 293.15 K [mPa·s]	viscosity, 298.15 K [mPa·s]	viscosity, 303.15 K [mPa·s]	viscosity, 308.15 K [mPa·s]
x1 = 0.0097	789.03	784.78	780.44	776.08	1.174	1.067	0.9713	0.884
x1 = 0.0198	788.28	783.99	779.64	775.26	1.146	1.043	0.9506	0.8659
x1 = 0.0301	787.54	783.23	778.87	774.47	1.118	1.027	0.9348	0.8484
x1 = 0.0402	786.85	782.54	778.16	773.74	1.092	0.9956	0.9088	0.8298
x1 = 0.0502	786.37	782.01	777.63	773.2	1.073	0.9782	0.893	0.8165
x1 = 0.0583	785.66	781.32	776.91	772.46	1.049	0.9582	0.8745	0.7986
x1 = 0.07	784.87	780.51	776.08	771.61	1.023	0.9337	0.854	0.7813
x1 = 0.0801	784.2	779.82	775.37	770.89	1	0.9146	0.8364	0.7634
x1 = 0.0861	783.96	779.52	775.09	770.6	0.9912	0.9061	0.8291	0.7578
x1 = 0.1009	782.99	778.56	774.11	769.6	0.9622	0.8805	0.806	0.7369
x1 = 0.154	779.59	775.08	770.56	765.97	0.8624	0.792	0.7283	0.6689
x1 = 0.2006	776.77	772.21	767.62	762.96	0.7889	0.7263	0.6694	0.6147
x1 = 0.2471	774.06	769.46	764.79	760.08	0.7261	0.6707	0.6185	0.5661
x1 = 0.2975	771.22	766.56	761.83	757.06	0.6675	0.6182	0.5731	0.5259
x1 = 0.3487	768.46	763.75	758.96	754.12	0.6166	0.5722	0.5309	0.4855
x1 = 0.3976	765.94	761.16	756.32	751.43	0.5761	0.5357	0.4954	0.4552
x1 = 0.4532	763.17	758.36	753.45	748.5	0.5354	0.4987	0.4638	0.4257
x1 = 0.5007	760.96	756.08	751.15	746.15	0.5062	0.4708	0.4353	0.3994
x1 = 0.5505	758.76	753.83	748.85	743.8	0.4798	0.4482	0.4155	0.379
x1 = 0.5998	756.62	751.67	746.63	741.53	0.4564	0.426	0.3967	0.363
x1 = 0.6484	754.48	749.51	744.43	739.29	0.4361	0.4083	0.3808	0.3487
x1 = 0.6995	752.35	747.32	742.19	737	0.4156	0.39	0.3632	0.3313
x1 = 0.749	750.35	745.3	740.14	734.91	0.3998	0.3751	0.3459	0.3273
x1 = 0.7995	748.36	743.27	738.06	732.8	0.3844	0.3616	0.3381	0.3084
x1 = 0.8496	746.44	741.31	736.08	730.78	0.3715	0.3488	0.3271	0.3025
x1 = 0.9009	744.51	739.34	734.07	728.75	0.3589	0.3384	0.3159	0.2963
x1 = 0.9093	744.2	739.04	733.77	728.45	0.3573	0.3382	0.3136	0.2948
x1 = 0.9166	743.9	738.72	733.47	728.14	0.3534	0.3338	0.3143	0.2965
x1 = 0.9299	743.35	738.18	732.9	727.57	0.352	0.3326	0.3136	0.2908
x1 = 0.9398	742.96	737.79	732.51	727.17	0.35	0.3294	0.3107	0.2884
x1 = 0.9501	742.54	737.38	732.09	726.76	0.348	0.3264	0.3068	0.2842
x1 = 0.9597	742.15	736.97	731.71	726.36	0.3458	0.3256	0.3066	0.2829
x1 = 0.968	741.84	736.66	731.37	726.03	0.3444	0.3247	0.3062	0.282
x1 = 0.9802	741.35	736.15	730.87	725.52	0.3418	0.3226	0.304	0.2809
x1 = 0.9868	741.1	735.92	730.61	725.26	0.3421	0.3209	0.3005	0.2794

Source: the NIST ThermoML archive (doi:10.1016/j.jct.2011.02.018)
